From article PMC9841519, “Corrole Nanoparticles for Chemotherapy of Castration-Resistant Prostate Cancer and as Sonodynamic Agents for Pancreatic Cancer Treatment” (Journal of Medicinal Chemistry, 2022)

Key:
[1] = tested on: DU-145; assay: MTT assay, antitumor activity (Figure 1 table); settings: for IC50: read-out: IC50 (μM) DU-145
Protocol: (§1) Cell death was evaluated using a colorimetric [3-(4,5-dimethyl-thiazol-2-yl)-2,5-diphenyl-tetrazolium bromide] (MTT) assay. […] Cells intended for US exposure were plated separately. […] After this incubation period, purple formazan salt crystals were formed by a NADP/NADPH-dependent process, in metabolically active cells. […] The absorption of MTT was determined in a Tecan Sunrise Elisa-Reader (Switzerland) at 570/650 nm after automatic subtraction of background readings.

[2] = tested on: MDA-MB-231; assay: MTT assay, antitumor activity (Figure 1 table); settings: for IC50: read-out: IC50 (μM) MDA-MB-231
Protocol: as §1

[3] = tested on: SK-MEL-28; assay: MTT assay, antitumor activity (Figure 1 table); settings: for IC50: read-out: IC50 (μM) SK-MEL-28
Protocol: as §1

[4] = tested on: OVCAR-3; assay: MTT assay, antitumor activity (Figure 1 table)
Protocol: as §1

[5] = tested on: Salmonella strain TA98; assay: Ames mutagenicity test
Excerpt: (§2) Briefly, the Ames test uses 5 bacterial strains (Salmonella and E. coli) that are exposed to a given compound with and without an enzymatic bioactivation system derived from rodent liver (S9). Each bacterial strain has a different loss of function mutation in a gene essential for the biosynthesis of a required amino acid, histidine in Salmonella or tryptophan in E. coli, such that they cannot grow and form colonies on agar plates lacking these amino acids.

[6] = tested on: several human cancer cell lines; assay: Screening of corrole derivatives and their NPs on several cancer cell lines; type: cell-based; settings: not consistent upon repeated experiments for 2-Au
Protocol: Multiple corrole derivatives and their NPs were tested on several cancer cell lines. These include several metal chelated derivatives of 5,10,15-tris(pentafluorophenyl)corrole (2-H3) (Figure 1A); β-substituted (iodinated and brominated) corroles and several of its metal chelates (only 4-Au data are shown); different meso substituted corroles and their metal chelates (e.g., 5,15-di(pentafluorophenyl)-10-(imidazolyl)-corrole gallium(III), not presented); and the new synthetically available compound 5,10,15-tris(trifluoromethyl)corrole with different chelated metals (only the gallium(III) chelate 3-Ga is presented in Figure 1A). […] The best candidates from the high molecular weight list of corrole derivatives were the gold complexes 2-Au and 4-Au. […] Though there was an apparent effect on the cell cycle progression of the treated cells, there was no apparent cell death outcome accompanying the cell cycle arrest. Furthermore, the cell population within the culture wells appeared to be dividing freely and completely covering the wells’ surface (data not shown).

[7] = tested on: Salmonella strain TA100; assay: Ames mutagenicity test; settings: S9: Yes
Excerpt: as §2

SMILES | IC50 [1] | IC50 [2] | IC50 [3] | other results
Fc1c(F)c(F)c(C2=C3C=CC(=N3)C(c3c(F)c(F)c(F)c(F)c3F)=c3ccc4[n]3[Au]3[n]5c2ccc5-c2ccc([n]23)C=4c2c(F)c(F)c(F)c(F)c2F)c(F)c1F [2-Au] | 0.005 to 4 µM | 0.01 to 1 µM | 0.006 to 5 µM | –
Fc1c(F)c(F)c(-c2c3nc(c(-c4c(F)c(F)c(F)c(F)c4F)c4ccc([nH]4)c4ccc([nH]4)c(-c4c(F)c(F)c(F)c(F)c4F)c4ccc2[nH]4)C=C3)c(F)c1F [2-H3, 5,10,15-tris(pentafluorophenyl)corrole] | – | – | – | IC50 (μM) DU-145 [1]: ambiguous; IC50 (μM) MDA-MB-231 [2]: ambiguous; IC50 (μM) OVCAR-3 [4]: ambiguous; IC50 (μM) SK-MEL-28 [3]: ambiguous
Fc1c(F)c(F)c(C2=C3C=CC(=N3)C(c3c(F)c(F)c(F)c(F)c3F)=c3ccc4[n]3[Mn]3[n]5c2ccc5-c2ccc([n]23)C=4c2c(F)c(F)c(F)c(F)c2F)c(F)c1F [2-Mn] | 10 µM | 4 µM | 5 µM | –
O=[N+]([O-])c1ccc2c(c1)Cc1ccccc1-2 [2-nitrofluorine] | – | – | – | AMES Result (Positive/Negative) ([5]; S9: No): Positive
Fc1c(F)c(F)c(C2=C3C=CC(=N3)C(c3c(F)c(F)c(F)c(F)c3F)=c3ccc4[n]3[Au]3[n]5c2c(I)c(I)c5-c2c(I)c(I)c([n]23)C=4c2c(F)c(F)c(F)c(F)c2F)c(F)c1F [4-Au] | 0.07 to 1 µM | 1 to 10 µM | 1 to 10 µM | IC50 values in several human cancer cell lines (in words) [6]: submicromolar to single micromolar; IC50 ([4]; read-out: IC50 (μM) OVCAR-3): 1 µM
Nc1cccc2cc3ccccc3cc12 [aminoanthracene] | – | – | – | AMES Result (Positive/Negative) ([5]; S9: Yes): Positive; AMES Result (Positive/Negative) [7]: Positive
